Publication PMC12090182, “Repurposing of the RIPK1-Selective Benzo[1,4]oxazepin-4-one Scaffold for the Development of a Type III LIMK1/2 Inhibitor” (ACS Chemical Biology, 2025)
Read-outs that look alike come from different tables or passages of the source.

How the values were obtained:
EGFR(G719S) = EGFR(G719S) (Homo sapiens, UniProt P00533, G719S); experiment: biochemical; assay type: binding; details: 1000 nM, read-out: Percent Control
[1] = molecular target: T1, ABL1(M351T)-phosphorylated (Homo sapiens, UniProt P00519, M351T); experiment: biochemical; assay type: binding; details: compound concentration 100 nM; Entrez ABL1; read-out: Percent Control
[2] = molecular target: ABL1(T315I)-nonphosphorylated (Homo sapiens, UniProt P00519, T315I); experiment: biochemical; assay type: binding; details: read-out: Percent Control
FLT3(K663Q) = FLT3(K663Q) (Homo sapiens, UniProt P36888, K663Q); experiment: biochemical; assay type: binding; details: compound concentration 100 nM; Entrez FLT3; read-out: Percent Control
PIK3CA(H1047Y) = PIK3CA(H1047Y) (Homo sapiens, UniProt P42336, H1047Y); experiment: biochemical; assay type: binding; details: compound concentration 100 nM; Entrez PIK3CA; read-out: Percent Control
PIK3CA(H1047Y), sequence (P42336 whole entry H1047Y): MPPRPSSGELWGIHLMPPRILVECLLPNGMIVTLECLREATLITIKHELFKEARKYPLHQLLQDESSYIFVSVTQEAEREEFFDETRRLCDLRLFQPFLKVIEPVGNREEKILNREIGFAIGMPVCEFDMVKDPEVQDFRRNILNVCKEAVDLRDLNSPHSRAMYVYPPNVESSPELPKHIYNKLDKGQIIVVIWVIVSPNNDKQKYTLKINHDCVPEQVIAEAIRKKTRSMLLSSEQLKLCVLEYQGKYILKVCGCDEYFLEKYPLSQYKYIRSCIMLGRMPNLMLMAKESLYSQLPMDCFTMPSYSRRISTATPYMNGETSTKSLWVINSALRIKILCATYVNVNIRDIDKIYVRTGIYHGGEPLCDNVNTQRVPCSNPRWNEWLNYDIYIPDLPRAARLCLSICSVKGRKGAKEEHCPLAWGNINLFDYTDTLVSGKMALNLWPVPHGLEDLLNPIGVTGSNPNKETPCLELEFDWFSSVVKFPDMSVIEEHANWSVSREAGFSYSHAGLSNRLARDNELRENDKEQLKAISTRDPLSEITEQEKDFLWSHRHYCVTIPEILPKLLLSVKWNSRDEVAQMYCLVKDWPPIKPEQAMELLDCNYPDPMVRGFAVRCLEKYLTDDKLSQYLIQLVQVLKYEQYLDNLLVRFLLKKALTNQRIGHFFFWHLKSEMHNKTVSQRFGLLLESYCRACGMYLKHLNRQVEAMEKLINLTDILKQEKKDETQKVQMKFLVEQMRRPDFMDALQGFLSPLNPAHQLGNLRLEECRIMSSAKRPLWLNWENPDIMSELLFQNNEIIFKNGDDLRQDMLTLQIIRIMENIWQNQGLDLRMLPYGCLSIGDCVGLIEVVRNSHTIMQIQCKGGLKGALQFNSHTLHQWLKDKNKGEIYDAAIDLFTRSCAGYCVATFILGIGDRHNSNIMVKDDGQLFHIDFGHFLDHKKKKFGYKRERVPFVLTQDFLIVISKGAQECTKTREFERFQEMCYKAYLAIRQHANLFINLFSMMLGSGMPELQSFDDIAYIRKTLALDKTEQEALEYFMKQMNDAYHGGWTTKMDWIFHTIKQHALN

PIK3CA(E545A) = PIK3CA(E545A) (Homo sapiens, UniProt P42336, E545A); experiment: biochemical; assay type: binding; details: compound concentration 100 nM; Entrez PIK3CA; read-out: Percent Control
PIK3CA(E545A), sequence (P42336 whole entry E545A): as the sequence (P42336 whole entry H1047Y) above, with E545A, Y1047H counted along it

MET(M1250T) = MET(M1250T) (Homo sapiens, UniProt P08581, M1250T); experiment: biochemical; assay type: binding; details: 1000 nM, read-out: Percent Control
MET(M1250T), sequence (P08581 25-1390 M1250T): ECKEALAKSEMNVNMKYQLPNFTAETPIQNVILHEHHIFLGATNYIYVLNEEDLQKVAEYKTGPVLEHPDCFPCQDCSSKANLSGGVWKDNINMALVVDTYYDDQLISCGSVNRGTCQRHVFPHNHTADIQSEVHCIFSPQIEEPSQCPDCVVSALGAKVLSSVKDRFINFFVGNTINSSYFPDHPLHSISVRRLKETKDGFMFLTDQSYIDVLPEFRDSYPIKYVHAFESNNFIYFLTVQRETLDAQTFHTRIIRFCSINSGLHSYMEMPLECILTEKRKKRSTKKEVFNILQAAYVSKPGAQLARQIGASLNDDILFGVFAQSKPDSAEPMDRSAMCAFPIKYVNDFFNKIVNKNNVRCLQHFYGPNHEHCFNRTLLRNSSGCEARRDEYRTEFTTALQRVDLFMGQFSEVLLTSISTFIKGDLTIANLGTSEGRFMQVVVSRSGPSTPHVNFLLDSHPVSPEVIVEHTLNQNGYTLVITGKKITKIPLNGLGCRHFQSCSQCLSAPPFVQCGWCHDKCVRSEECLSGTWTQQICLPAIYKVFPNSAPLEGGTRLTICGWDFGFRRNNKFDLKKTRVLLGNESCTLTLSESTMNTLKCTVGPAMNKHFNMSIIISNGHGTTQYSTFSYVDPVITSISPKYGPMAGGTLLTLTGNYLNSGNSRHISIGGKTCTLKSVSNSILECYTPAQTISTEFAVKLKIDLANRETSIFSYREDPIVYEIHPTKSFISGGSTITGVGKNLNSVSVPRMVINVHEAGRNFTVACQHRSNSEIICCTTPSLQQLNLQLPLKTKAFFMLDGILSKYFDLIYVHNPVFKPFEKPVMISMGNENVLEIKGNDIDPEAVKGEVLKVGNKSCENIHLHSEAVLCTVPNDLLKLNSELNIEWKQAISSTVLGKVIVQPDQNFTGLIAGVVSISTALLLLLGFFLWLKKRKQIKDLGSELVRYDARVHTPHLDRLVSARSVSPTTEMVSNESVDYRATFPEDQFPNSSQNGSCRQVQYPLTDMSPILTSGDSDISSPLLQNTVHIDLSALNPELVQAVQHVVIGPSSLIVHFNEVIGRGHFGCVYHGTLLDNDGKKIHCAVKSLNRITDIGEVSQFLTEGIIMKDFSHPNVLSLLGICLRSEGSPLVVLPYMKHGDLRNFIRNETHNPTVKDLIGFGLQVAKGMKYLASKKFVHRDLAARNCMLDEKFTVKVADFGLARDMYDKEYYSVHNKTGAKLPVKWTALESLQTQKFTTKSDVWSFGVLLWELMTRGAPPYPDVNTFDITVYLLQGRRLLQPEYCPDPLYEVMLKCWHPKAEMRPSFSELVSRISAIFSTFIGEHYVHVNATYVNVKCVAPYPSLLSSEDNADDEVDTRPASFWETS

FLT3(ITD,F691L) = assay type: binding; details: 1000 nM
[3] = Pharmacokinetic screening in mice (IV and PO, cassette dosing); assay type: in vivo, mouse; details: plasma
Protocol: Test compounds were administered intravenously (0.1 mg mL^–1/kg) or orally (1 mg/5 mL/kg) by cassette dosing to nonfasted mice. After administration, blood samples were collected and centrifuged to obtain the plasma fraction. The plasma samples were deproteinized followed by centrifugation. The compound concentrations in the supernatant were analyzed by LC/MS/MS.

EGFR(L747-T751del,Sins) = assay type: binding
PIK3CA(E542K) = PIK3CA(E542K) (Homo sapiens, UniProt P42336, E542K); experiment: biochemical; assay type: binding; details: read-out: Percent Control
PIK3CA(E542K), sequence (P42336 whole entry E542K): as the sequence (P42336 whole entry H1047Y) above, with E542K, Y1047H counted along it

[4] = molecular target: T1, ABL1(M351T)-phosphorylated; experiment: biochemical; assay type: binding; details: read-out: Percent Control
BTK = molecular target: T2, BTK (Homo sapiens, UniProt Q06187); experiment: NanoBRET cellular target engagement; assay type: cell-based; details: HEK293T cells, read-out: EC50 (NanoBRET), Figure 4C
T2 construct: full-length LIMK1/2, RIPK1, BTK, and LRRK2 cloned in a frame in a NanoLuc-vector (Promega); host or cells: HEK293T
T2 sequence (Q06187 whole entry): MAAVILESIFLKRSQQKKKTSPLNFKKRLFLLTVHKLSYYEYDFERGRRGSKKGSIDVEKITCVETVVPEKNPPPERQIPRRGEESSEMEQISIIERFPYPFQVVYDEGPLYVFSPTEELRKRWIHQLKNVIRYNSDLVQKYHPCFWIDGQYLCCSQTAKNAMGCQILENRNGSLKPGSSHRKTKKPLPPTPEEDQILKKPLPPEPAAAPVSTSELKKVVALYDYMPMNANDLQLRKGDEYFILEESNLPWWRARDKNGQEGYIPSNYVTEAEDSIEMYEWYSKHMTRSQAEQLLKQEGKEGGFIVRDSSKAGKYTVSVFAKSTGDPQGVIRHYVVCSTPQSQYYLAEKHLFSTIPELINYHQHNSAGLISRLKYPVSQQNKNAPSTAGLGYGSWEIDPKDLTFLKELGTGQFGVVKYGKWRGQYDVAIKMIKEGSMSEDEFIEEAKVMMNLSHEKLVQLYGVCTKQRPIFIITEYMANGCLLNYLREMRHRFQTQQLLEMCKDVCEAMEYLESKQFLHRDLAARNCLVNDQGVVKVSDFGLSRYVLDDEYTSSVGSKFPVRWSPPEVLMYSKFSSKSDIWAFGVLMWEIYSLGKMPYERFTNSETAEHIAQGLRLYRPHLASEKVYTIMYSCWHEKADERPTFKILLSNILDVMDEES
Protocol: (§1) The assay was performed as described previously.[31],[32] In brief, full-length LIMK1/2, RIPK1, BTK, and LRRK2 cloned in a frame in a NanoLuc-vector (Promega) were transfected into HEK293T cells (ATCC CRL-1573) using FuGENE HD (Promega, E2312), and proteins were allowed to express for 20 h. The serially diluted inhibitor and NanoBRET Kinase Tracer (Promega) used at the previously determined Tracer KD,app (Table S1) were pipetted into white 384-well plates (Greiner 781 207) using an ECHO 550 acoustic dispenser (Labcyte). The corresponding transfected cells were added and reseeded at a density of 2 × 10^5 cells/mL after trypsinization and resuspension in Opti-MEM without phenol red (Life Technologies). The system was allowed to equilibrate for 2 h at 37 °C and 5% CO2 prior to BRET measurements. To measure BRET, a NanoBRET Nano-Glo substrate and an extracellular NanoLuc inhibitor (Promega, N2160) were added as per the manufacturer's protocol, and filtered luminescence was measured on a PHERAstar plate reader (BMG Labtech) equipped with a luminescence filter pair (a 450 nm BP filter (donor) and a 610 nm LP filter (acceptor)). Competitive displacement data were then plotted using GraphPad Prism 10 software using a normalized three-parameter curve fit with the following equation: Y = 100/( [drawing 1] ).

LRRK2 = LRRK2 (Homo sapiens, UniProt Q5S007); experiment: NanoBRET cellular target engagement; assay type: cell-based; details: LRRK2, HEK293T cells; read-out: EC50 (NanoBRET), Figure 4C
Protocol: as §1

[5] = molecular target: EGFR(L747-E749del, A750P) (Homo sapiens, UniProt P00533, A750P/DEL747-749); experiment: biochemical; assay type: binding; details: compound concentration 100 nM; Entrez EGFR; read-out: Percent Control
EGFR(L747-E749del, A750P), sequence (P00533 other isoform, or with tags, fused parts or gaps DEL747-749/A750P): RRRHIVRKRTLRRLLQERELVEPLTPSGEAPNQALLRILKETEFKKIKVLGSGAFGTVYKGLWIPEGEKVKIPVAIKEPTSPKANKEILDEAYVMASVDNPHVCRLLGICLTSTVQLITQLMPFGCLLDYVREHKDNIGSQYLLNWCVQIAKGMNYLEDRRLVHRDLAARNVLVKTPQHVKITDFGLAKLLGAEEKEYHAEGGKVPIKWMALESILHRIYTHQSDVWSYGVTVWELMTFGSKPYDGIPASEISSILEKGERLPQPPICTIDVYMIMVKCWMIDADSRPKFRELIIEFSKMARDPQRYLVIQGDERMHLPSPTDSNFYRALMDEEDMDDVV

BRPF1B = BRPF1B (Homo sapiens, UniProt P55201); experiment: DSF selectivity screening; assay type: binding; details: 10 μM compound
[6] = molecular target: EGFR(L747-S752del, P753S) (Homo sapiens, UniProt P00533, DEL747-752/P753S); experiment: biochemical; assay type: binding; details: read-out: Percent Control
EGFR(L747-S752del, P753S), sequence (P00533 other isoform, or with tags, fused parts or gaps DEL747-752/P753S): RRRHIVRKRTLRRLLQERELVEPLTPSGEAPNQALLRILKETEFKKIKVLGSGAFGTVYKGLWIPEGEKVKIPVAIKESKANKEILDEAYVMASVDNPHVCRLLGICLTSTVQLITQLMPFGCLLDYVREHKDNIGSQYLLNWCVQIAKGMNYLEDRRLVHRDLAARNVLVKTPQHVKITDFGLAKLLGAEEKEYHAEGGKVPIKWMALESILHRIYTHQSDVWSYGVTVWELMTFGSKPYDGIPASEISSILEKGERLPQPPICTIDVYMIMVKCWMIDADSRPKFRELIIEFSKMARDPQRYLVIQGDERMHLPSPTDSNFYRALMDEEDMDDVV

KIT(D816H) = KIT(D816H) (Homo sapiens, UniProt P10721, D816H); experiment: biochemical; assay type: binding; details: 1000 nM, read-out: Percent Control
FGFR3(G697C) = FGFR3(G697C) (Homo sapiens, UniProt P22607, G697C); experiment: biochemical; assay type: binding; details: read-out: Percent Control
[7] = molecular target: ABL1(H396P)-phosphorylated (Homo sapiens, UniProt P00519, H396P); experiment: biochemical; assay type: binding; details: read-out: Percent Control
RET(M918T) = RET(M918T) (Homo sapiens, UniProt P07949, M918T); experiment: biochemical; assay type: binding; details: 1000 nM, read-out: Percent Control
RET(M918T), sequence (P07949 29-1114 M918T): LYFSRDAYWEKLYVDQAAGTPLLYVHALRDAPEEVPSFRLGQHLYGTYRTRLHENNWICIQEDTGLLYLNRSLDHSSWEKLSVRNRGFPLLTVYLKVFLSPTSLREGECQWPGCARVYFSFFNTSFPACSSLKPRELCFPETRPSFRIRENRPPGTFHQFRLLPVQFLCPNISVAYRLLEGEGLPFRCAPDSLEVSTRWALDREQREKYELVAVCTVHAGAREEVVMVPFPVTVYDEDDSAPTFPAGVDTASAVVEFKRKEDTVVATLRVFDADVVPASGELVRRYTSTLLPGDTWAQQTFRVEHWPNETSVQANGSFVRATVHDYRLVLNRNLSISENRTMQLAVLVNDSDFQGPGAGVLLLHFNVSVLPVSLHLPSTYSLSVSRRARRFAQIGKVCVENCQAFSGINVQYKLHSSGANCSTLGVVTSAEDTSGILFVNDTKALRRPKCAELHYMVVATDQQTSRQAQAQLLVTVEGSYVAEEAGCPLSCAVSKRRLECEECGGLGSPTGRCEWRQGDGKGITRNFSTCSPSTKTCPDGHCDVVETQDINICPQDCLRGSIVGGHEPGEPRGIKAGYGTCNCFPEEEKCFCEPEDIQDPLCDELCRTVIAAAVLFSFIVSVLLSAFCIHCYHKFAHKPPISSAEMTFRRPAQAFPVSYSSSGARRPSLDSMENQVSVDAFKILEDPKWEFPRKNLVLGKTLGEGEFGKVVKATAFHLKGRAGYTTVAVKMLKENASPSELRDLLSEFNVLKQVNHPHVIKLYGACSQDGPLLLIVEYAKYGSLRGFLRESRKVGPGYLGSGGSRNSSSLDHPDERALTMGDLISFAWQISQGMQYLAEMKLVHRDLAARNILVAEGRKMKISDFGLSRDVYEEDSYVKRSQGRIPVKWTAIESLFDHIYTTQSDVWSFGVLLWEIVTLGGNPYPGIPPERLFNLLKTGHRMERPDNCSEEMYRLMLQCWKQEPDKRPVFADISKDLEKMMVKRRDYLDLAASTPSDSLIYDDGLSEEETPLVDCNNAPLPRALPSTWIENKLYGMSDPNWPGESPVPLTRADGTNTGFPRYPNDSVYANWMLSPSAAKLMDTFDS

PIK3CA(E545K) = PIK3CA(E545K) (Homo sapiens, UniProt P42336, E545K); experiment: biochemical; assay type: binding; details: read-out: Percent Control
PIK3CA(E545K), sequence (P42336 whole entry E545K): as the sequence (P42336 whole entry H1047Y) above, with E545K, Y1047H counted along it

FLT3(R834Q) = FLT3(R834Q) (Homo sapiens, UniProt P36888, R834Q); experiment: biochemical; assay type: binding; details: 1000 nM, read-out: Percent Control

Structure (SMILES): CN1C(=O)[C@@H](N2CCc3c(nn(Cc4ccccc4)c3C(N)=O)C2=O)COc2cc(Cl)ccc21 [Compound 10, (S)-2-benzyl-6-(8-chloro-5-methyl-4-oxo-2,3,4,5-tetrahydrobenzo[b][1,4]oxazepin-3-yl)-7-oxo-4,5,6,7-tetrahydro-2H-pyrazolo[3,4-c]pyridine-3-carboxamide]
- remaining activity at 1 µM (EGFR(G719S)): 92%
- remaining activity at 0.1 µM [1]: 92%
- remaining activity at 1 µM [2]: 73%
- remaining activity at 0.1 µM (FLT3(K663Q)): 100%
- remaining activity at 0.1 µM (PIK3CA(H1047Y)): 100%
- remaining activity at 0.1 µM (PIK3CA(E545A)): 92%
- remaining activity at 1 µM (MET(M1250T)): 83%
- Percent Control (FLT3(ITD,F691L)): 100%
- AUC ([3]; 0.1 mg/kg, Mouse PK IV, 0.10 mg/kg, read-out: AUCiv): 94.7 ng·h/mL
- concentration at 5 min ([3]; 0.1 mg/kg, Mouse PK IV, 0.10 mg/kg, read-out: C5min): 44.5 ng/mL
- Cmax ([3]; Mouse PK PO, 1.0 mg/kg): 11.8 ng/mL
- Tmax ([3]; Mouse PK PO, 1.0 mg/kg): 30 min
- AUC ([3]; Mouse PK PO, 1.0 mg/kg, read-out: AUCpo): 30.9 ng·h/mL
- bioavailability ([3]; mouse, PO 1.0 mg/kg vs IV 0.10 mg/kg): 4%
- Percent Control (EGFR(L747-T751del,Sins)): 97%
- remaining activity at 1 µM (PIK3CA(E542K)): 94%
- remaining activity at 1 µM [4]: 100%
- EC50 (BTK): > 50 µM
- EC50 (LRRK2): > 50 µM
- remaining activity at 0.1 µM [5]: 100%
- ΔTm at 10 µM (BRPF1B): -0.1 °C
- remaining activity at 1 µM [6]: 100%
- remaining activity at 1 µM (KIT(D816H)): 97%
- remaining activity at 1 µM (FGFR3(G697C)): 100%
- remaining activity at 1 µM [7]: 88%
- remaining activity at 1 µM (RET(M918T)): 96%
- remaining activity at 1 µM (PIK3CA(E545K)): 97%
- remaining activity at 1 µM (FLT3(R834Q)): 92%
